According to PubChem BioAssay (NCI):
Where “and” joins values, the source holds several entries; their conditions need not be identical. Equal values may be shown once.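 Five concentrations, 48 hours, 96-well plates. GI50 is the concentration that inhibits growth by half. TGI: total growth inhibition.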

Key:
Experiment in all cases: NCI anticancer screen, dose series, 48 h
CCRF-CEM leukemia = test system: CCRF-CEM leukemia
SR leukemia = test system: SR leukemia
SN12C renal = test system: SN12C renal
MDA-MB-231 breast = test system: MDA-MB-231 breast
BT-549 breast = test system: BT-549 breast
HCT-116 colon = test system: HCT-116 colon
HCC-2998 colon = test system: HCC-2998 colon
EKVX NSCLC = test system: EKVX NSCLC
HS 578T breast = test system: HS 578T breast
NCI/ADR-RES ovarian = test system: NCI/ADR-RES ovarian

SMILES | TGI (CCRF-CEM leukemia) | GI50 (SR leukemia) | TGI (SR leukemia) | GI50 (SN12C renal) | GI50 (MDA-MB-231 breast) | GI50 (BT-549 breast) | GI50 (HCT-116 colon) | TGI (HCT-116 colon) | TGI (HCC-2998 colon) | TGI (SN12C renal) | TGI (EKVX NSCLC) | GI50 (CCRF-CEM leukemia) | GI50 (HCC-2998 colon) | GI50 (HS 578T breast) | TGI (HS 578T breast) | TGI (MDA-MB-231 breast) | TGI (BT-549 breast) | GI50 (EKVX NSCLC) | GI50 (NCI/ADR-RES ovarian) | TGI (NCI/ADR-RES ovarian)
Nc1ncnc2c1ncn2C1OC(COS(N)(=O)=O)C(O)C1O (stereo unspecified) | 0.173 µM | < 0.001 µM | 0.0136 µM | < 0.001 µM | < 0.001 µM | 0.00266 µM and 0.0266 µM | 0.00252 µM and 0.0248 µM | 0.0156 µM and 0.0656 µM | – | – | – | – | – | – | – | – | – | – | – | –
CC1=C(C(=O)NCc2ccccc2)C(c2ccc(Cl)c(Cl)c2)C(C(=O)NCc2ccccc2)=C(C)N1 | > 100 µM | – | > 100 µM | – | – | – | – | > 100 µM | > 100 µM | > 100 µM | > 100 µM | – | – | – | – | – | – | – | – | –
C[P+](C)(C)C | > 100 µM | – | > 100 µM | – | – | – | – | > 100 µM | > 100 µM | > 100 µM | > 100 µM | – | – | – | – | – | – | – | – | –
CCc1cccc(C(C)C)c1NC(=O)CCl | > 100 µM | – | > 100 µM | – | – | – | – | > 100 µM | – | > 100 µM | > 100 µM | – | – | – | – | – | – | – | – | –
CC1(C)CCCC2(C)C3C(O)CC2(C)C(O)C31 (stereo unspecified) | > 100 µM | – | – | – | – | – | – | > 100 µM | > 100 µM | > 100 µM | > 100 µM | – | – | – | – | – | – | – | – | –
NCCCCCNc1noc(Cc2c[nH]c3cc(Br)ccc23)n1 | 8.2 µM | 0.406 µM | 14.1 µM | 3.54 µM | 2.78 µM | 2.43 µM | 0.675 µM | 13.4 µM | 14.7 µM | 16.9 µM | – | 1.81 µM | 2.84 µM | 1.99 µM | 22.1 µM | 15.7 µM | 24.4 µM | – | – | –
Cn1c(=O)nc2n(-c3ccc(Cl)cc3)c(-c3ccccc3)c(-c3ccccc3)nc-2c1=O | 77.1 µM | – | – | – | – | – | – | – | > 100 µM | > 100 µM | > 100 µM | – | – | – | – | – | – | – | – | –
CC(C)(C)c1cc(C(=O)Nc2ccc(C(=O)NCCN)cc2)cc(C(C)(C)C)c1 | 7.28 µM | 1.47 µM | 4.82 µM | 1.98 µM | – | 13.1 µM | 3.36 µM | 12.7 µM | 3.18 µM | 3.9 µM | 14.5 µM | 2.54 µM | 1.69 µM | 2.2 µM | 5.96 µM | – | 33.6 µM | 2.04 µM | 14.7 µM | 35 µM
CCCCCCCCOCC(O)CO (stereo unspecified) | 65 µM | – | > 100 µM | – | – | – | – | > 100 µM | > 100 µM | > 100 µM | > 100 µM | – | – | – | – | – | – | – | – | –
Cc1cccc(C)c1NC(=O)CCC/C(CC(=O)c1ccc(F)cc1)=N\NC(=O)C(=O)NN | > 100 µM | – | – | – | – | – | – | > 100 µM | > 100 µM | > 100 µM | > 100 µM | – | – | – | – | – | – | – | – | –
CCOC(=O)C1C=C2O[C@@H]3OC4(CCCCC4)O[C@@H]3C2C2C(=O)CCC(=O)[C@@]12C(=O)OC (stereo partly specified) | > 100 µM | – | – | – | – | – | – | > 100 µM | > 100 µM | > 100 µM | > 100 µM | – | – | – | – | – | – | – | – | –
Nc1ccc(-c2cc(C(=O)Nc3nccs3)[nH]c(=S)n2)cc1 | > 100 µM | – | – | – | – | – | – | > 100 µM | – | > 100 µM | > 100 µM | – | – | – | – | – | – | – | – | –
Cc1c(Cl)c(=O)oc2cc(OC/C=C3\CCC(=O)O3)ccc12 | 61.3 µM | – | – | 16.8 µM | 16.8 µM | 15.7 µM | 13.9 µM | 28.3 µM | 41.2 µM | 41.4 µM | > 100 µM | 12.5 µM | 18 µM | 24.2 µM | 77.4 µM | 33.2 µM | 32 µM | 29.9 µM | 24.1 µM | 59.4 µM
C1OC1CN1CCN(CC2CO2)CC1 (stereo unspecified) | > 100 µM | – | 23.3 µM | – | – | – | – | > 100 µM | > 100 µM | > 100 µM | > 100 µM | – | – | – | – | – | – | – | – | –
CC[C@@]1(OC(=O)C(N)CCCCN)C(=O)OCc2c1cc1n(c2=O)Cc2cc3ccccc3nc2-1 (stereo partly specified) | 0.115 µM | – | < 0.0217 µM | – | – | – | – | 0.495 µM | 2.11 µM | 1.63 µM | > 30.6 µM | – | – | – | > 100 µM | > 100 µM | 10.9 µM | – | – | –
CCN(CC)c1c(-c2ccccc2)n[nH]c1C(=O)OC | 71 µM | 17.2 µM | 80.1 µM | 24.4 µM | 35.8 µM | 16.4 µM | – | – | – | 40.3 µM | 56.8 µM | 22.8 µM | – | 17 µM | 49.4 µM | 60.4 µM | 51.1 µM | 21.2 µM | 19.2 µM | 37.4 µM
O=C1N2Cc3c4ccc5c3CN3C(=O)N6Cc7c(ccc(c7CN1C6(c1ccccc1)C23c1ccccc1)OCCOCCOc1cc(Br)c(Br)cc1OCCOCCO4)OCCOCCOc1cc(Br)c(Br)cc1OCCOCCO5 (stereo unspecified) | > 100 µM | – | > 100 µM | – | – | – | – | > 100 µM | > 100 µM | > 100 µM | > 100 µM | – | – | – | – | – | – | – | – | –
C/C(=N\NC(=O)C[N+](C)(C)C)c1sc(-c2cccnc2)nc1C | > 100 µM | – | – | – | – | – | – | > 100 µM | > 100 µM | – | > 100 µM | – | – | – | – | – | – | – | – | –
C/C(=N\NC(N)=S)c1ccc(C)c(C)c1 | > 100 µM | – | > 100 µM | – | – | – | – | > 100 µM | > 100 µM | > 100 µM | > 100 µM | – | – | – | – | – | – | – | – | –
C=CC(COC(=O)C(C)(C)OC(C)=O)c1ccc(OC(=O)C(C)C)c(OC)c1 (stereo unspecified) | > 22 µM | – | – | – | – | – | – | > 48.9 µM | 10.5 µM | > 37 µM | 34.1 µM | – | – | – | 50.8 µM | 9.36 µM | 22.5 µM | – | – | > 84.9 µM
O=[P+](O)c1ccccn1 | > 100 µM | – | – | – | – | – | – | > 100 µM | > 100 µM | > 100 µM | > 100 µM | – | – | – | – | – | – | – | – | –
Cc1ccc(S(=O)(=O)N/N=C(\c2nc3ccc([N+](=O)[O-])cc3[nH]c2=O)C(O)c2ccc([N+](=O)[O-])cc2)cc1 (stereo unspecified) | > 100 µM | – | – | – | – | – | – | – | > 100 µM | > 100 µM | > 100 µM | – | – | – | – | – | – | – | – | –
CN(C)CCC(/C=C/c1ccccc1)=N\Nc1ccc(Cl)c(Cl)c1 | 10.1 µM | – | 5.34 µM | – | – | – | – | 11.2 µM | – | 13.7 µM | 13.1 µM | – | – | – | – | – | – | – | – | –
Cc1cc(N(CCC#N)CCC#N)ccc1N=Nc1cc(Cl)ccc1Cl | 19.2 µM | – | – | – | – | – | – | – | 32.9 µM | 27.1 µM | 26.5 µM | – | – | – | – | – | – | – | – | –
O=C1C(=C2CCCC2)CCC1CN1CCCCC1 (stereo unspecified) | 36.6 µM | – | 47.1 µM | – | – | – | – | 38.1 µM | 29.8 µM | 30.6 µM | 35.4 µM | – | – | – | – | – | – | – | – | –
CC(C)(C)OP(=O)(OC(C)(C)C)C(O)c1ccc(/C=C(\C#N)C(N)=O)cc1 (stereo unspecified) | > 100 µM | – | – | – | – | – | – | > 100 µM | > 100 µM | > 100 µM | > 100 µM | – | – | – | – | – | – | – | – | –
